Measured values reported in BindingDB's records for doi:10.1111/cbdd.12141 (Konkuk University, 2013).

Target: Xanthine dehydrogenase/oxidase (Bos taurus, UniProt P80457)
Test: XO inhibitory activity
Conditions: pH 7.6; 25 °C
Method: The enzyme was pre-incubated for 5 min, with test compound, dissolved in DMSO (1% v/v). The reaction was initiated by the addition of xanthine.

Chain of Xanthine dehydrogenase/oxidase (P80457 whole entry): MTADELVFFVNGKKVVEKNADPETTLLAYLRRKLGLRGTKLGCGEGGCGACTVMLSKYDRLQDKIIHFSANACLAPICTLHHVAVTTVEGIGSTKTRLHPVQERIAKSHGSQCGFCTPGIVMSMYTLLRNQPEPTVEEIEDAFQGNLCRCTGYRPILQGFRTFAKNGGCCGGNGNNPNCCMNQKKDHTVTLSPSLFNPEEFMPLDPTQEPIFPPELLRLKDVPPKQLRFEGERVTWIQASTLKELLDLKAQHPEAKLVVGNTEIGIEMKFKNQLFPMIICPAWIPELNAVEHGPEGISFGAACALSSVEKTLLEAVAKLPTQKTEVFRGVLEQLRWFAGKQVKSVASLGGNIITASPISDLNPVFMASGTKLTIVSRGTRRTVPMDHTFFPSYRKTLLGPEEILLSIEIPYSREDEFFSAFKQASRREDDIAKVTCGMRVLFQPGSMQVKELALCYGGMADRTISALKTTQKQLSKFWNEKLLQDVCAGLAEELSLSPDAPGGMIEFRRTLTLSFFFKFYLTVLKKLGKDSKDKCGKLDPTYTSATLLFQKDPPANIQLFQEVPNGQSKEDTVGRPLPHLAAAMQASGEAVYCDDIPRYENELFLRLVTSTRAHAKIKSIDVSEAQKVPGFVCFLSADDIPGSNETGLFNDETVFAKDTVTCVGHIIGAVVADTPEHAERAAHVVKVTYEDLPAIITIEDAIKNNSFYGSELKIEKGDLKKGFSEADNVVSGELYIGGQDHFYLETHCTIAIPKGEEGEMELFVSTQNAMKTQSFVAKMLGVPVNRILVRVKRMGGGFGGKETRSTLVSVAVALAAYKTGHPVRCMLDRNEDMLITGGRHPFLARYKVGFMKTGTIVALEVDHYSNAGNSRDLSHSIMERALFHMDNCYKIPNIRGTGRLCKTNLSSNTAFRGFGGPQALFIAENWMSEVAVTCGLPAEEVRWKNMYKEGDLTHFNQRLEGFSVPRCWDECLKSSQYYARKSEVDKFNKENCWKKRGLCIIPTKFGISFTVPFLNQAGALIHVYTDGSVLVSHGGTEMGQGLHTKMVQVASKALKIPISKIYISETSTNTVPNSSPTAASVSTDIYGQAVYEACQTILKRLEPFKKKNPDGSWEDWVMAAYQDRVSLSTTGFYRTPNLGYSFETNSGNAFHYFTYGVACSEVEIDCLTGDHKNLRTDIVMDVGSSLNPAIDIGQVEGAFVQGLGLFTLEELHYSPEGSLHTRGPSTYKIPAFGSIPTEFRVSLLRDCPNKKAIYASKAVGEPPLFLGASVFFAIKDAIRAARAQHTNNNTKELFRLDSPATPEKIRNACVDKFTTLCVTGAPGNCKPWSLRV

| IC50 [µM] | SMILES |
| --- | --- |
| 8.7 | Oc1ccccc1Cn1c(-c2ccccc2O)nc2ccccc21 |
| 9.7 | c1ccc(Cn2c(-c3ccccc3)nc3ccccc32)cc1 [1‐benzyl‐2‐phenyl‐1,3‐benzodiazole (B10)] |
| 5.3 | Oc1ccc2ccccc2c1-c1nc2ccccc2n1Cc1ccc2ccccc2c1O [1‐{1‐[(1‐hydroxynaphthalen‐2‐yl)methyl]‐1,3‐ benzodiazol‐2‐yl}naphthalen‐2‐ol (B11)] |
| 4.4 | Clc1ccccc1Cn1c(-c2ccccc2Cl)nc2ccccc21 [2‐(2‐chlorophenyl)‐1‐[(2‐chlorophenyl)methyl]‐1,3‐ benzodiazole (B3)] |
| 5.6 | Cc1ccccc1Cn1c(-c2ccccc2C)nc2ccccc21 [2‐(2‐methylphenyl)‐1‐[(2‐methylphenyl)methyl]‐1,3‐ benzodiazole (B4)] |
| 8.2 | Clc1cccc(Cn2c(-c3cccc(Cl)c3)nc3ccccc32)c1 [2‐(3‐chlorophenyl)‐1‐[(3‐chlorophenyl)methyl]‐1,3‐ benzodiazole (B8)] |
| 5.1 | COc1cccc(Cn2c(-c3cccc(OC)c3)nc3ccccc32)c1 [2‐(3‐methoxyphenyl)‐1‐[(3‐methoxyphenyl)methyl]‐ 1,3‐benzodiazole (B13)] |
| 4.3 | Cc1cccc(Cn2c(-c3cccc(C)c3)nc3ccccc32)c1 [2‐(3‐methylphenyl)‐1‐[(3‐methylphenyl)methyl]‐1,3‐ benzodiazole (B9)] |
| 6.3 | Clc1ccc(Cn2c(-c3ccc(Cl)cc3)nc3ccccc32)cc1 [2‐(4‐chlorophenyl)‐1‐[(4‐chlorophenyl)methyl]‐1,3‐ benzodiazole (B2)] |
| 8.5 | COc1ccc(Cn2c(-c3ccc(OC)cc3)nc3ccccc32)cc1 [2‐(4‐methoxyphenyl)‐1‐[(4‐methoxyphenyl)methyl]‐ 1,3‐benzodiazole (B14)] |
| 7.5 | Cc1ccc(Cn2c(-c3ccc(C)cc3)nc3ccccc32)cc1 [2‐(4‐methylphenyl)‐1‐[(4‐methylphenyl)methyl]‐1,3‐ benzodiazole (B5)] |
| 7.1 | c1cncc(Cn2c(-c3cccnc3)nc3ccccc32)c1 [2‐(pyridin‐3‐yl)‐1‐(pyridin‐3‐ylmethyl)‐1,3‐ benzodiazole (B12)] |
| 5.8 | Oc1cccc(Cn2c(-c3cccc(O)c3)nc3ccccc32)c1 [3‐{1‐[(3‐hydroxyphenyl)methyl]‐1,3‐benzodiazol‐2‐ yl}phenol (B7)] |
| 4.5 | Oc1ccc(Cn2c(-c3ccc(O)cc3)nc3ccccc32)cc1 [4‐{1‐[(4‐hydroxyphenyl)methyl]‐1,3‐benzodiazol‐2‐ yl}phenol (B6)] |
